Values quoted from earlier work as cited in patent publication US20170072004A1, “COMPOSITIONS AND METHODS FOR IMPROVING THE BIOAVAILABILITY OF CURCUMINOIDS” (priority 2015, published 2017).

Conditions: rats, oral curcumin 2 g/kg, co-administration of piperine

## COc1cc(/C=C/C(=O)CC(=O)/C=C/c2ccc(O)c(OC)c2)ccc1O [curcumin, diferuloylmethane]
  Increase in systemic bioavailability following oral dosing: ≤ 154%
